Results taken from the supplement of paper PMC10307832.

Experiments:
Assay in all cases: relative viability (nuclei count vs DMSO), 5 days (fraction); higher = more cells survive
Trametinib + Luminespib = compound: CC(=O)Nc1cccc(-n2c(=O)n(C3CC3)c(=O)c3c(Nc4ccc(I)cc4F)n(C)c(=O)c(C)c32)c1 [Trametinib] + CCNC(=O)c1noc(-c2cc(C(C)C)c(O)cc2O)c1-c1ccc(CN2CCOCC2)cc1 [Luminespib] (partner 0.01 µM)
Summary of the method: (§1)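 Each reported value is a median over duplicate plates. It expresses relative viability: treated-well nuclei count divided by vehicle-well nuclei count. Lung cancer cell lines in 1536-well plates were dosed by pin tool a day after seeding, alone with one drug or with a fixed anchor-drug dose plus five library-drug doses (not always all listed) in √10 steps, and nuclei were counted after 5 days.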

Trametinib + Vorinostat = compound: CC(=O)Nc1cccc(-n2c(=O)n(C3CC3)c(=O)c3c(Nc4ccc(I)cc4F)n(C)c(=O)c(C)c32)c1 [Trametinib] + O=C(CCCCCCC(=O)Nc1ccccc1)NO [Vorinostat] (partner 1 µM)
Summary of the method: as §1

[1] = compound: CN1C=C(C2=CC=CC=C21)/C=C\3/C4=C(C=CC=N4)NC3=O + Nc1nc2[nH]cc(CCc3ccc(C(=O)N[C@@H](CCC(=O)O)C(=O)O)cc3)c2c(=O)[nH]1 [Pemetrexed] (partner 0.2 µM)
Summary of the method: as §1

[2] = compound: CN1C=C(C2=CC=CC=C21)/C=C\3/C4=C(C=CC=N4)NC3=O
Summary of the method: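 Viability was defined as treated-well nuclei divided by vehicle-well nuclei, with the median taken over replicate plates. Cells from lung cancer lines sat overnight at 37 °C in 1536-well plates, received five √10-spaced library-drug doses by pinning on vehicle-anchored plates, and grew 5 days without medium change before one-step fixation, permeabilisation and Hoechst staining, 4× imaging and MetaXpress nuclear counts. Only plates with control CV under 25% and at least one doubling were kept.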

Row | Cell Line | relative viability (Trametinib + Luminespib; first compound 0.0025 µM) | relative viability (Trametinib + Luminespib; first compound 0.007906 µM) | relative viability (Trametinib + Luminespib; first compound 0.025 µM) | relative viability (Trametinib + Luminespib; first compound 0.07906 µM) | relative viability (Trametinib + Luminespib; first compound 0.25 µM) | relative viability (Trametinib + Vorinostat; first compound 0.0025 µM) | relative viability (Trametinib + Vorinostat; first compound 0.007906 µM) | relative viability (Trametinib + Vorinostat; first compound 0.025 µM) | relative viability (Trametinib + Vorinostat; first compound 0.07906 µM) | relative viability (Trametinib + Vorinostat; first compound 0.25 µM) | relative viability ([1]; first compound 0.02 µM) | relative viability ([1]; first compound 0.06325 µM) | relative viability ([1]; first compound 0.2 µM) | relative viability ([1]; first compound 0.6325 µM) | relative viability ([1]; first compound 2 µM) | relative viability ([2]; 0.02 µM) | relative viability ([2]; 0.06325 µM) | relative viability ([2]; 0.2 µM) | relative viability ([2]; 0.6325 µM) | relative viability ([2]; 2 µM)
1 | SK-MES-1 | 0.498 | 0.368 | 0.277 | 0.231 | 0.207 | 0.994 | 0.894 | 0.744 | 0.511 | 0.337 | 0.846 | 0.856 | 0.687 | 0.954 | 0.852 | 0.967 | 0.959 | 0.951 | 0.929 | 0.967
2 | NCI-H1793 | 0.304 | 0.159 | 0.142 | 0.173 | 0.17 | 0.579 | 0.432 | 0.317 | 0.317 | 0.221 | 0.876 | 1.11 | 0.73 | 0.785 | 0.988 | 1.02 | 1.1 | 0.737 | 0.79 | 0.918
3 | LCLC-97TM1 | 0.802 | 0.493 | 0.291 | 0.226 | 0.234 | 0.722 | 0.701 | 0.435 | 0.225 | 0.0816 | – | 0.177 | 0.18 | 0.21 | 0.186 | 0.701 | 0.844 | 0.717 | 1.11 | 0.922
4 | NCI-H1915 | 0.823 | 0.55 | 0.297 | 0.204 | 0.123 | 0.558 | 0.575 | 0.466 | 0.368 | 0.289 | 0.463 | 0.41 | 0.579 | 0.487 | 0.504 | 0.964 | 0.934 | 0.97 | 1.09 | 1.05
5 | NCI-H661 | 0.914 | 0.917 | 0.888 | 0.702 | 0.641 | 0.742 | 0.753 | 0.782 | 0.782 | 0.724 | 1.02 | 0.902 | 0.89 | 0.985 | 0.972 | 0.999 | 0.986 | 0.985 | 1.06 | 0.986
6 | NCI-H2405 | 0.529 | 0.591 | 0.395 | 0.338 | 0.306 | 0.985 | 0.853 | 0.649 | – | 0.601 | 1 | 0.955 | 0.828 | 1.09 | 1.01 | 0.987 | 0.959 | 0.715 | 0.966 | 0.961
7 | NCI-H2347 | 0.513 | 0.254 | 0.205 | 0.208 | 0.303 | 0.467 | 0.358 | 0.289 | 0.329 | 0.358 | 0.445 | 0.454 | 0.444 | 0.423 | 0.426 | 1.05 | 1.01 | 0.94 | 0.932 | 1.02
8 | NCI-H1651 | 0.866 | 0.736 | 0.749 | 0.791 | 0.654 | 0.546 | 0.546 | 0.466 | 0.505 | 0.505 | 0.651 | 0.579 | 0.574 | 0.648 | 0.644 | 1.07 | 0.961 | 0.957 | 0.945 | 1.06
9 | H3255 | 1.07 | 0.928 | 0.581 | 0.601 | 0.236 | 0.903 | 0.799 | 0.509 | 0.709 | 0.905 | 0.578 | 0.549 | 0.493 | 0.615 | 0.54 | 1.04 | 0.951 | 0.834 | 0.978 | 0.903
10 | SW 900 | 0.189 | 0.167 | 0.15 | 0.169 | 0.17 | 0.44 | 0.545 | 0.439 | 0.456 | 0.138 | 0.474 | – | – | 0.512 | 0.486 | 0.969 | 0.79 | – | 1.02 | 0.987
11 | NCI-H650 | 0.862 | 0.828 | 0.659 | 0.578 | 0.375 | 0.528 | 0.585 | 0.392 | 0.569 | 0.667 | 0.934 | 0.875 | – | 0.805 | 0.918 | 0.968 | 0.915 | – | 0.84 | 0.846
12 | NCI-H460 | 0.0314 | 0.0296 | 0.0277 | 0.0263 | 0.0269 | 0.621 | 0.482 | 0.376 | 0.12 | 0.0929 | 0.0583 | 0.0649 | 0.0603 | 0.0702 | 0.0616 | 1.04 | 0.98 | 0.973 | 0.992 | 0.947
13 | NCI-H2228 | 0.15 | 0.0886 | 0.134 | 0.0863 | 0.112 | 0.673 | 0.87 | 0.766 | 0.426 | 0.309 | 0.337 | 0.305 | 0.349 | 0.372 | 0.365 | 1.05 | 0.856 | – | 0.864 | 1.14
14 | NCI-H2085 | 0.415 | 0.325 | 0.263 | 0.288 | 0.329 | 0.695 | 0.718 | 0.501 | 0.609 | 0.563 | 0.789 | 0.927 | 0.836 | 0.975 | 0.967 | 1.01 | 0.943 | 0.942 | 1.03 | 0.993
15 | EPLC-272H | 0.222 | 0.22 | 0.251 | 0.129 | 0.117 | 0.455 | 0.368 | 0.233 | 0.148 | 0.162 | 0.3 | 0.274 | 0.298 | – | 0.369 | 0.921 | 0.828 | 0.639 | 0.645 | 0.869
16 | 201T | 1.08 | 0.866 | 0.856 | 0.852 | 0.8 | 0.945 | 0.833 | 0.736 | 0.732 | 0.785 | 0.31 | 0.317 | 0.365 | 0.342 | 0.358 | 0.951 | 0.979 | 0.988 | 0.916 | 0.971
